One series relates to HCMV. The series is described as follows: Anti-HCMV cytopathogenicity test (inhibition of CPE). The class given is cell-based, human cytomegalovirus. Conditions: for EC50: Human betaherpesvirus 5, 144 h, concentration inhibiting the CPE by 50% vs untreated virus control, HCMV-infected NHDF cells, 6 days. The protocol:
Anti-HCMV (Anti-Human Cytomegalovirus) Cytopathogenicity Tests The test compounds are employed as 50 millimolar (mM) solutions in dimethyl sulfoxide (DMSO). Ganciclovir, foscarnet and cidofovir are used as reference compounds. After the addition of in each case 2 μl of the 50, 5, 0.5 and 0.05 mM DMSO stock solutions to 98 μl portions of cell culture medium in row […] for duplicate determinations, 1:2 dilutions are carried out with 50 μl portions of medium up to row 11 of the 96-well plate. The wells in rows 1 and 12 each contain 50 μl of medium. Then 150 μl of a suspension of 1×10^4 cells (human prepuce fibroblasts [NHDF]) are pipetted into each of the wells (row 1=cell control) and, in rows 2-12, a mixture of HCMV-infected and uninfected NHDF cells (M.O.I.=0.001-0.002), i.e. 1-2 infected cells per 1000 uninfected cells. Row 12 (without substance) serves as virus control. The final test concentrations are 250-0.0005 μM. The plates are incubated at 37° C./5% CO2 for 6 days, i.e. until all the cells in the virus controls are infected (100% cytopathogenic effect [CPE]). The wells are then fixed and stained by adding a mixture of formalin and Giemsa's dye (30 minutes), washed with double-distilled water and dried in a drying oven at 50° C. The plates are then assessed visually using an overhead microscope (Plaque Multiplier from Technomara). The following data can be acquired from the test plates: EC50 (HCMV)=substance concentration in μM which inhibits the CPE (cytopathic effect) by 50% compared with the untreated virus control; SI (selectivity index)=CC50 (NHDF)/EC50 (HCMV).

A short description of series [1]: Anti-HCMV cytopathogenicity test: cytostatic effects on NHDF cells. The class given is cell-based. Particulars: human, NHDF cells (human prepuce fibroblasts), maximum substance concentration with no visible cytostatic effects vs untreated cell control. As to the method: Anti-HCMV (Anti-Human Cytomegalovirus) Cytopathogenicity Tests The test compounds are employed as 50 millimolar (mM) solutions in dimethyl sulfoxide (DMSO). Ganciclovir, foscarnet and cidofovir are used as reference compounds. After the addition of in each case 2 μl of the 50, 5, 0.5 and 0.05 mM DMSO stock solutions to 98 μl portions of cell culture medium in row […] for duplicate determinations, 1:2 dilutions are carried out with 50 μl portions of medium up to row 11 of the 96-well plate. The wells in rows 1 and 12 each contain 50 μl of medium. Then 150 μl of a suspension of 1×10^4 cells (human prepuce fibroblasts [NHDF]) are pipetted into each of the wells (row 1=cell control) and, in rows 2-12, a mixture of HCMV-infected and uninfected NHDF cells (M.O.I.=0.001-0.002), i.e. 1-2 infected cells per 1000 uninfected cells. Row 12 (without substance) serves as virus control. The final test concentrations are 250-0.0005 μM. The plates are incubated at 37° C./5% CO2 for 6 days, i.e. until all the cells in the virus controls are infected (100% cytopathogenic effect [CPE]). The wells are then fixed and stained by adding a mixture of formalin and Giemsa's dye (30 minutes), washed with double-distilled water and dried in a drying oven at 50° C. The plates are then assessed visually using an overhead microscope (Plaque Multiplier from Technomara). The following data can be acquired from the test plates: CC50 (NHDF)=maximum substance concentration in μM at which no visible cytostatic effects on the cells are evident by comparison with the untreated cell control;
(Damage to the host cells serves as the signal in cytopathic effect assays.)

Molecules are shown by their SMILES.

For orientation: EC50 means the concentration needed to bring the measured effect to its halfway point. The term CC50 denotes the concentration giving 50% cytotoxicity. Low values mean harm at low concentration, high ones better tolerance by the cells.

In the case of `COc1ccc(N2CCN(C(=O)c3nc(NC(=O)Nc4ccc(OC(F)(F)F)cc4)cn3C)CC2)nc1` [Example 29], in the series on HCMV, the “SI HCMV (selectivity index = CC50 (NHDF)/EC50 (HCMV))” value was found to be 35790 and a half-maximal effect (EC50) was put at 0.95 nM. This compound also returned a CC50 at 6 days in series [1] of 34 µM.
Taken in the same sequence, the figures for `Cn1cc(NC(=O)Nc2ccc(OC(F)(F)F)cc2)nc1C(=O)N1CCN(c2ccccn2)CC1` [Example 1, N-{1-Methyl-2-[(4-pyridin-2-ylpiperazin-1-yl)carbonyl]-1H-imidazol-4-yl}-N′-[4-(trifluoromethoxy)phenyl]urea] were 14500, 3 nM and 43.5 µM.
In the same order, the values of `Cc1ccc(N2CCN(C(=O)c3nc(NC(=O)Nc4ccc(OC(F)(F)F)cc4)cn3C)CC2)nc1` [Example 2, N-(1-Methyl-2-{[4-(5-methylpyridin-2-yl)piperazin-1-yl]carbonyl}-1H-imidazol-4-yl)-N′-[4-(trifluoromethoxy)phenyl]urea] are 14530, 0.75 nM and 10.9 µM.
Regarding `Cn1cc(NC(=O)Nc2ccc(OC(F)(F)F)cc2)nc1C(=O)N1CCN(c2ccc(C#N)cn2)CC1` [Example 25], in the series with HCMV, the “SI HCMV (selectivity index = CC50 (NHDF)/EC50 (HCMV))” value was found to be 2600 and a half-maximal response (EC50) required 4.8 nM. Besides, half-maximal cytotoxicity in series [1] (CC50 at 6 days) was put at 12.5 µM.
Taken in the same sequence, the figures for `Cc1ccc(N2CCN(C(=O)c3nc(NC(=O)Nc4ccc(OC(F)(F)F)cc4)cn3CC3CC3)CC2)nc1` [Example 32] were 6240, 0.85 nM and 5.3 µM.

These data come from patent publication US7919489B2, “Heterocyclyamide-substituted imidazoles” (Aicuris GmbH & Co. KG, priority 2005, dated 2011).
